Laboratory results from PubChem BioAssay (NCI).
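Test compounds were applied to cells in 96-well plates for 48 hours at 5 doses. TGI is the concentration that stops growth completely.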

Tests used:
Experiment in all cases: inhibition of tumour cell growth, NCI panel, 48 h
SK-MEL-28 melanoma = test system: SK-MEL-28 melanoma
COLO 205 colon = test system: COLO 205 colon
MOLT-4 leukemia = test system: MOLT-4 leukemia
K-562 leukemia = test system: K-562 leukemia
NCI-H226 lung = test system: NCI-H226 lung
NCI-H522 lung = test system: NCI-H522 lung
HT29 colon = test system: HT29 colon
ACHN renal = test system: ACHN renal
MDA-MB-435 = test system: MDA-MB-435
SN12C renal = test system: SN12C renal

SMILES	TGI (SK-MEL-28 melanoma)	TGI (COLO 205 colon)	TGI (MOLT-4 leukemia)	TGI (K-562 leukemia)	TGI (NCI-H226 lung)	TGI (NCI-H522 lung)	TGI (HT29 colon)	TGI (ACHN renal)	TGI (MDA-MB-435)	TGI (SN12C renal)
Cc1cc(Cc2c(F)c(F)c(C(c3cc(C)no3)c3c(F)c(F)c(F)c(F)c3F)c(F)c2F)on1 (stereo not given)	> 100 µM	> 100 µM	> 100 µM	> 100 µM	> 100 µM	> 100 µM	> 100 µM	> 100 µM	> 41.9 µM	> 100 µM
Nc1nc(N)c2ncn(Cc3ccccc3CCl)c2n1	> 100 µM	> 100 µM	> 100 µM	> 100 µM	> 100 µM	> 100 µM	> 100 µM	> 100 µM	> 100 µM	> 100 µM
Cc1cc(NC[C@H](O)[C@H](O)[C@H](O)CO)c(Sc2cc(=O)[nH]c(=O)[nH]2)cc1C	> 62.5 µM	> 62.5 µM	> 62.5 µM	> 62.5 µM	> 62.5 µM	> 62.5 µM	> 62.5 µM	> 62.5 µM	> 62.5 µM	> 62.5 µM
O=C1[C@@H]2[C@@H](c3ccccc3)[C@]2(Cl)C(=O)[C@H]2[C@H](c3ccccc3)[C@@]12Cl	> 100 µM	> 100 µM	> 100 µM	> 100 µM	> 100 µM	> 100 µM	> 100 µM	> 100 µM	> 100 µM	> 100 µM
CCCCCCCCCCCCOP(=O)(O)OCC(N)C(=O)O (stereo not given)	> 100 µM	> 100 µM	36.2 µM	> 100 µM	> 100 µM	> 100 µM	> 100 µM	> 100 µM	36.8 µM	61 µM
CC(C)(C)c1cc(C2=NN(c3ccccc3)C(c3ccccc3)C2)cc(C(C)(C)C)c1O (stereo not given)	> 100 µM	> 100 µM	> 100 µM	> 100 µM	> 100 µM	> 100 µM	> 100 µM	> 100 µM	> 100 µM	> 100 µM
CCCCCCOP(=O)(OCCCCCC)C(NC(=O)OCC)(C(F)(F)F)C(F)(F)F	> 100 µM	32.3 µM	> 100 µM	> 100 µM	66.2 µM	52.6 µM	> 100 µM	> 100 µM	> 100 µM	> 100 µM
CCn1cc(C(=O)O)c(=O)c2cc3c(cc21)S(=O)(=O)CC3	> 100 µM	> 100 µM	> 100 µM	> 100 µM	> 100 µM	> 100 µM	> 100 µM	> 100 µM	> 100 µM	> 100 µM
O=C(CCCCCCC(=O)Nc1cccnc1)NO	> 80.3 µM	> 20.5 µM	> 100 µM	> 100 µM	> 100 µM	17.3 µM	> 37.4 µM	> 92.2 µM	> 42.6 µM	> 38.8 µM
CC(=O)O[C@@H]1C2=C(C)C=C(O2)[C@H]2O[C@]2(C)C[C@H]2C=C(C(=O)O2)[C@H](OC(C)=O)CC1[C@@]1(C)CO1 (stereo not given in full)	36 µM	27.1 µM	25.2 µM	36.5 µM	> 100 µM	12.5 µM	> 100 µM	61.6 µM	71.8 µM	69.8 µM
N#C/C(=C\NC(=S)c1ccncc1)c1nc2ccccc2s1	> 100 µM	> 100 µM	> 100 µM	> 100 µM	> 100 µM	> 100 µM	> 100 µM	> 100 µM	> 100 µM	> 100 µM
O=C(Cc1nccc2c1[nH]c1ccccc12)OC1C#CCSCC#C/C=C\1 (stereo not given)	> 100 µM	> 100 µM	> 100 µM	> 100 µM	> 100 µM	> 100 µM	> 100 µM	> 100 µM	> 100 µM	> 100 µM
Cc1cc(C)c2c(n1)S(=O)(=O)N(CCCN1CCN(c3cccc(C(F)(F)F)c3)CC1)c1c-2nn(C)c1C	> 100 µM	> 100 µM	> 100 µM	> 100 µM	> 100 µM	> 100 µM	52 µM	> 100 µM	> 100 µM	> 100 µM
c1csc(-c2cc(-c3cccs3)c(-c3cccs3)s2)c1	> 100 µM	> 100 µM	> 100 µM	> 100 µM	> 100 µM	> 100 µM	> 100 µM	> 100 µM	> 100 µM	> 100 µM
COC(=O)c1ccc(C)cc1/C=C1\Cc2ccc(C)cc2C1=O	34.6 µM	25.1 µM	> 100 µM	42.8 µM	24.9 µM	45 µM	40.9 µM	> 100 µM	20.2 µM	32.9 µM
